Data on one molecule can be found in ChEMBL document CHEMBL5678818, “Discovery of potent SOS1 inhibitors that block RAS activation via disruption of the RAS-SOS1 interaction” (Proc Natl Acad Sci U S A, 2019).

Experiment [1] deals with High affinity nerve growth factor receptor (Homo sapiens) (UniProt P04629). Put plainly: Inhibition of TRKA (unknown origin) assessed as residual activity at 100 nM by KINOMEscan analysis relative to control.
The target in experiment [2] is Calcium/calmodulin-dependent protein kinase kinase 2 (Homo sapiens) (UniProt Q96RR4). Put plainly: Inhibition of CAMKK2 (unknown origin) assessed as residual activity at 100 nM by KINOMEscan analysis relative to control.
Calcium/calmodulin-dependent protein kinase kinase 2 (Homo sapiens), sequence (Q96RR4 2-588 limits assumed): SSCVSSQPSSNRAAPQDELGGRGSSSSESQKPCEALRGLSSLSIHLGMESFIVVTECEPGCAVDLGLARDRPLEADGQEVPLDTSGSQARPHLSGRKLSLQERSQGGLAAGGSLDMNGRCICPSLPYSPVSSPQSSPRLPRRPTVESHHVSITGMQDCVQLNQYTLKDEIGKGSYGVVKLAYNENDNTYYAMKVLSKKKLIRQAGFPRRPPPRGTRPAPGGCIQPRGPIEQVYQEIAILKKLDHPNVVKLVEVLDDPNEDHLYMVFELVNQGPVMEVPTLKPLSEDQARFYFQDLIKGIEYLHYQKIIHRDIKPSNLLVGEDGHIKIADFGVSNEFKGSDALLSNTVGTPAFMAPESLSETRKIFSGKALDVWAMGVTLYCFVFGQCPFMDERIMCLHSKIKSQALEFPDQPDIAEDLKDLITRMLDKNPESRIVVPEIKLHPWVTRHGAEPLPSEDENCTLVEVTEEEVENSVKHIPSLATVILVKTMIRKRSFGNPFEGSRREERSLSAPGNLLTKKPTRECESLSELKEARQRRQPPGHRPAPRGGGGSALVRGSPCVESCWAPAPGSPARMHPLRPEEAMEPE
Experiment [3] addresses T1, Son of sevenless homolog 1 (Homo sapiens) (UniProt Q07889).
T1 sequence (whole entry): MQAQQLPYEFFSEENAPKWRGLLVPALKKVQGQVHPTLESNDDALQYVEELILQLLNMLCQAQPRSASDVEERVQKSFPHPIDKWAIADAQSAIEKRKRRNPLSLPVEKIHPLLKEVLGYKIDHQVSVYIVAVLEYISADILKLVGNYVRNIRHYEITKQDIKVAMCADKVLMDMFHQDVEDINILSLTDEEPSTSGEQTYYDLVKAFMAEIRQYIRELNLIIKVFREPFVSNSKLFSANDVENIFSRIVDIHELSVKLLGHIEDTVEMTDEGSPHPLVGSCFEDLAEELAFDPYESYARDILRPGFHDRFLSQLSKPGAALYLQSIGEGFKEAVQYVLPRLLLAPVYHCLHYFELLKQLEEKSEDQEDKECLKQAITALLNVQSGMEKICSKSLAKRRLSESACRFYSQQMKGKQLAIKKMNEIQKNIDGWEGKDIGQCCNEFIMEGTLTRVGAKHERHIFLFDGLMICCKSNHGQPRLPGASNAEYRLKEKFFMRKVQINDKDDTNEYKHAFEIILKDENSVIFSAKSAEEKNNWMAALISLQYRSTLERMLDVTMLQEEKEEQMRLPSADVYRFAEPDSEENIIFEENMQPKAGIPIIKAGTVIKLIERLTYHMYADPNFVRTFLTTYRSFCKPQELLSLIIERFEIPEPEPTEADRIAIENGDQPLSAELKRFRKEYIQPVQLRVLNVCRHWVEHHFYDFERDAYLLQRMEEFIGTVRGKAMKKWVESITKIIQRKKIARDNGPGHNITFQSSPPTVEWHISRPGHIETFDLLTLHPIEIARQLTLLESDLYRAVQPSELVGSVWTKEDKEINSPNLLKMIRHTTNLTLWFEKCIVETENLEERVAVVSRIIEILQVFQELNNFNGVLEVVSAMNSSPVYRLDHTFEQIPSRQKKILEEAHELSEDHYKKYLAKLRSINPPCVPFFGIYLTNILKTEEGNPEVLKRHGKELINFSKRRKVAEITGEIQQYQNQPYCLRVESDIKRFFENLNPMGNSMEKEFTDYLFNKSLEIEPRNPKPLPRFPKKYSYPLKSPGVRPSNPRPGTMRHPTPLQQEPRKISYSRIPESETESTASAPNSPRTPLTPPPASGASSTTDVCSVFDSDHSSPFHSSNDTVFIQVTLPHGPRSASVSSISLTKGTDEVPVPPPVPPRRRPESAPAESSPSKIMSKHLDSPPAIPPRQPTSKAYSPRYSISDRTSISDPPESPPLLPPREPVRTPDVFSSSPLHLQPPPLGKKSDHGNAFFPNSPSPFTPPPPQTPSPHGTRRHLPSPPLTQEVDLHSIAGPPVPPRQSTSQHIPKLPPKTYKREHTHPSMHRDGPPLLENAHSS
Kind of experiment: Binding affinity to N-terminal His10-tagged wild-type recombinant human SOS1 catalytic domain (564 to 1049 residues) expressed in Escherichia coli assessed as change in Gibbs free energy by ITC analysis. On the technique in general: Isothermal titration calorimetry measures the heat released or taken up as one component is titrated into another.

The target in experiment [4] is T2, Dual serine/threonine and tyrosine protein kinase (Homo sapiens) (UniProt Q6XUX3).
T2 sequence (whole entry): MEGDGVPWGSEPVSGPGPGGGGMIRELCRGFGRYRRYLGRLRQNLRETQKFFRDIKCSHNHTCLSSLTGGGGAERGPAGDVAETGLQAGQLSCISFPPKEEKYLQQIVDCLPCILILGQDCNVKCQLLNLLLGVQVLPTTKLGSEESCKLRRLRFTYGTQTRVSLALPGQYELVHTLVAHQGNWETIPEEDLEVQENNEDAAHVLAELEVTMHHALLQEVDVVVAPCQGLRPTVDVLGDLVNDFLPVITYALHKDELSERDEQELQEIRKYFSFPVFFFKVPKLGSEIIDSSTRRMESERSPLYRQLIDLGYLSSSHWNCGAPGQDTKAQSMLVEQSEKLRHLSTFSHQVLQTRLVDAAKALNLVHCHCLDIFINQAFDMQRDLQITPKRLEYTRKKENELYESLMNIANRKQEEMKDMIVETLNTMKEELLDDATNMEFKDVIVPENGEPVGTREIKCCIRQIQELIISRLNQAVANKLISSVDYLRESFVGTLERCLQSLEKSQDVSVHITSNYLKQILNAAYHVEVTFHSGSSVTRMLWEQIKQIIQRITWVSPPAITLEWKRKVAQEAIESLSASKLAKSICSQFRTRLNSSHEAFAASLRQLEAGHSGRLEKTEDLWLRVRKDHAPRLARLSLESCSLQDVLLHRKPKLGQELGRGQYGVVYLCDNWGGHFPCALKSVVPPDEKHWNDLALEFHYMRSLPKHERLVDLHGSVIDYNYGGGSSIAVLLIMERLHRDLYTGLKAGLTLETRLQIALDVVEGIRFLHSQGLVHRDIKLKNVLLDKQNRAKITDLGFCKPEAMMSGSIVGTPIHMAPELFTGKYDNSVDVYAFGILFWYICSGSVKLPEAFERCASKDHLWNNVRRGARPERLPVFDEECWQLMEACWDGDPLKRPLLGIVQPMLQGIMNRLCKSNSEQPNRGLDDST
Kind of experiment: Inhibition of RIPK5 (unknown origin) assessed as residual activity at 100 nM by KINOMEscan analysis relative to control.

For experiment [5], the target named is Epithelial discoidin domain-containing receptor 1 (Homo sapiens) (UniProt Q08345). Put plainly: Inhibition of DDR1 (unknown origin) assessed as residual activity at 100 nM by KINOMEscan analysis relative to control.
Epithelial discoidin domain-containing receptor 1 (Homo sapiens), sequence (Q08345 whole entry, the tested form may be a part): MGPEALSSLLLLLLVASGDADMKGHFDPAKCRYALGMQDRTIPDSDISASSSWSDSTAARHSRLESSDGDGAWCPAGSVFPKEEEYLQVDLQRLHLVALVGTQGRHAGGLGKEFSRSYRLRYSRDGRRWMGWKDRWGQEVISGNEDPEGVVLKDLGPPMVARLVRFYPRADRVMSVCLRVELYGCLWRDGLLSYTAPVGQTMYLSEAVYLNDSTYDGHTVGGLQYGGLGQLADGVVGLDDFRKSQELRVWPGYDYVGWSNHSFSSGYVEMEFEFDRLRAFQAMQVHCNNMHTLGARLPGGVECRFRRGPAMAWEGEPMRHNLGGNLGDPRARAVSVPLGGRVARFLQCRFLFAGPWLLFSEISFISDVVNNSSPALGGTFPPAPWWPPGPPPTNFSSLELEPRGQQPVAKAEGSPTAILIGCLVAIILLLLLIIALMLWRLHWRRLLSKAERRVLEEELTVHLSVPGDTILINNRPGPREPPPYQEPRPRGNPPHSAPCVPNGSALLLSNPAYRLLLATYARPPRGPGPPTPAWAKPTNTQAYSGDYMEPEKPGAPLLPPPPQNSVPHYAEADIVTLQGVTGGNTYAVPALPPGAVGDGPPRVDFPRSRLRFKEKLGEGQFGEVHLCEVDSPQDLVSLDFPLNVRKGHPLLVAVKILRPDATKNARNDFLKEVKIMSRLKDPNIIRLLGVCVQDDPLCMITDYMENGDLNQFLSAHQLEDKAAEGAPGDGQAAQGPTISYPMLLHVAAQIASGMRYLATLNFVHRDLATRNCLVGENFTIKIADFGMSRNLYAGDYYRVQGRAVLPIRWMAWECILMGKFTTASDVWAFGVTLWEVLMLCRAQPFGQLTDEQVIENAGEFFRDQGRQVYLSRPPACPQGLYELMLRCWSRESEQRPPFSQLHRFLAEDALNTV

Each structure is given as a SMILES string.

High affinity nerve growth factor receptor (Homo sapiens), sequence (P04629 33-796 limits assumed): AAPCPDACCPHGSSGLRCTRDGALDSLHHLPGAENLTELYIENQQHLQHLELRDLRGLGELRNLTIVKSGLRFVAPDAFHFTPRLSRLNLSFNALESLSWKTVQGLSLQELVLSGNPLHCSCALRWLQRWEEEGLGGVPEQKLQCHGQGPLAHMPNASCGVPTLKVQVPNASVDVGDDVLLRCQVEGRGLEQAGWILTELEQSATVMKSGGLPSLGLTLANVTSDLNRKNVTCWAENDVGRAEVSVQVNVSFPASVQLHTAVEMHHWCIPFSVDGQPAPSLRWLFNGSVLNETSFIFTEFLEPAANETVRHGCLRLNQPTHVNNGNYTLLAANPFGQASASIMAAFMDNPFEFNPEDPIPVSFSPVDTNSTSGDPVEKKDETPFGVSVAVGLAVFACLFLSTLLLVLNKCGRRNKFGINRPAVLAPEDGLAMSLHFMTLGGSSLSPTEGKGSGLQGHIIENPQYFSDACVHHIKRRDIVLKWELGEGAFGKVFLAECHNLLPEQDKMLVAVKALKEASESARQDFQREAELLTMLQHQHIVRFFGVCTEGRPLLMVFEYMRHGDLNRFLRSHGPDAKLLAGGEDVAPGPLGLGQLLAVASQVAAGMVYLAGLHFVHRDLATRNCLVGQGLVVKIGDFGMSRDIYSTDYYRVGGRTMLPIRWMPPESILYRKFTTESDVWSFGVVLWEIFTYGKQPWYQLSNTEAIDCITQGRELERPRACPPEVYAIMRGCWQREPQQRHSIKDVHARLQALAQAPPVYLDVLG

Take `COc1cc2ncnc(N[C@H](C)c3cccc4ccccc34)c2cc1OC`: the Activity in experiment [1] is 100%; in experiment [2], 60%; in experiment [4], 96%; in experiment [5] it was 100%. Also, the deltaG in experiment [3] is -8.6 kcal/mol.
